Article PMC12528727 (Nature Communications, 2025)
Where no end group is shown, it is not given here.

Legend:
[1] = test system: Candida albicans ATCC10231; assay: Antifungal activity assay at 128 µM; format: cell-based; conditions: 128 µM peptide; growth curves (Supplementary Fig. 11)
[2] = test system: NIH/3T3 cells; assay: Cytotoxicity assay; format: cell-based, murine; conditions: 128 µM peptide, 24 h, CCK-8, absorbance 450 nm, n = 3
[3] = ABTS+ radical scavenging assay; format: biochemical; conditions: 1 mg/mL c_AMPs
[4] = test system: S. aureus 09057; conditions: two-fold dilutions 128 µM to 1 µM; CaMHB, 37 °C, 16 h, OD600; n = 3
[5] = test system: E. coli z44; conditions: two-fold dilutions 128 µM to 1 µM; CaMHB, 37 °C, 16 h, OD600; n = 3
[6] = test system: Bacillus subtilis WB600; assay: Antibacterial activity screen at 128 µM; conditions: 128 µM peptide
[7] = test system: Micrococcus luteus ATCC4698; assay: Antibacterial activity screen at 128 µM; conditions: 128 µM peptide

With CLCGGKGKKLGKG [C4] the “time for which growth of C. albicans ATCC10231 was inhibited post treatment” value [1] was “up to 2 h”.
GKGAKKGLKGLKG [B3] gave a cytotoxicity rate [2] of 6.97%.
For KKPRPWPWKRRKK [D4], the “ABTS^+ free radical scavenging rate” value [3] was 72%.
In the case of IRPWRKPRWPWKR [D2], the “MIC, S. aureus 09057” value [4] is reported as 32 µM and the “minimum inhibitory concentration (MIC), E. coli z44” value [5] is reported as 8 µM.
For GLCGKGGKCCCGC [C1], the “effect on B. subtilis WB600” value [6] was “negatively impacted” and the “inhibition of M. luteus ATCC4698 growth” value [7] was “completely inhibit”.
For KKGLGGKLLACKG [A3], the “ABTS^+ free radical scavenging rate” value [3] was at least 90%, the “time for which growth of B. subtilis WB600 was halted post treatment” value ([6]; growth curves (Supplementary Fig. 11), no inhibition at 16 h) was “up to 3 h” and the “inhibition of M. luteus ATCC4698 growth” value [7] was “completely inhibit”.
In the case of KLKGLLGGKKKLK [A1], the “inhibition of M. luteus ATCC4698 growth” value [7] is reported as “completely inhibit”.
